Reference: ChEMBL document CHEMBL4342488, “Structure-Activity Relationship Study of Covalent Pan-phosphatidylinositol 5-Phosphate 4-Kinase Inhibitors” (ACS Med Chem Lett, 2020)
Blank lines part the entries; values can stand above or below the compound they belong to.

Key:
[1] = target: T1, Phosphatidylinositol 5-phosphate 4-kinase type-2 beta (Homo sapiens, UniProt P78356); experiment: Inhibition of PI5P4Kbeta (unknown origin) incubated for 15 mins in presence of ATP by ADP-Glo assay
T1 sequence (P78356 whole entry): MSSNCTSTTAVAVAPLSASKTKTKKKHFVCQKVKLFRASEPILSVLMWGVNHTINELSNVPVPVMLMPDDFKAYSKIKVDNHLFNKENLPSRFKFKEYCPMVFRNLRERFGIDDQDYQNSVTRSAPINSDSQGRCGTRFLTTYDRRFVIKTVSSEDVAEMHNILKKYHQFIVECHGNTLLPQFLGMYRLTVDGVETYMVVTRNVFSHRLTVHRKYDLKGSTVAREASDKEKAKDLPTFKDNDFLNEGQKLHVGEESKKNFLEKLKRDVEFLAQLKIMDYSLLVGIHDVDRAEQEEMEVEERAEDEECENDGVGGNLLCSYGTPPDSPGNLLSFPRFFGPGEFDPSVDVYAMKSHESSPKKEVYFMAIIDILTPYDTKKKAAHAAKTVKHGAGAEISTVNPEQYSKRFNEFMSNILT

[2] = target: T2, Phosphatidylinositol 5-phosphate 4-kinase type-2 alpha (Homo sapiens, UniProt P48426); experiment: Inhibition of PI5P4Kalpha (unknown origin) incubated for 15 mins in presence of ATP by ADP-Glo assay
T2 sequence (P48426 whole entry): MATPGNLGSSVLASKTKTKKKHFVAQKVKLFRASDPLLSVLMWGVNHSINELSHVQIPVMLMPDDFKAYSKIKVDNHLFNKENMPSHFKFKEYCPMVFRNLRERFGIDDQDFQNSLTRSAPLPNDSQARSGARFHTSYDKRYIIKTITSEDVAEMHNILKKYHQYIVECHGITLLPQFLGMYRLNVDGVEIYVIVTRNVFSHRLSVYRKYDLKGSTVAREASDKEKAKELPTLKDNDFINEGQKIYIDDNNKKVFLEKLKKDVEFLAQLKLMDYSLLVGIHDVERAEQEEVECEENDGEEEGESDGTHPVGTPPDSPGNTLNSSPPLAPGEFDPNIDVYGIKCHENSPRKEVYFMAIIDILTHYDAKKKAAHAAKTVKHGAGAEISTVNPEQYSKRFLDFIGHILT

[3] = target: T3, Phosphatidylinositol 5-phosphate 4-kinase type-2 gamma (Homo sapiens, UniProt Q8TBX8); experiment: Inhibition of PI5P4Kgamma (unknown origin)
T3 sequence (Q8TBX8 whole entry): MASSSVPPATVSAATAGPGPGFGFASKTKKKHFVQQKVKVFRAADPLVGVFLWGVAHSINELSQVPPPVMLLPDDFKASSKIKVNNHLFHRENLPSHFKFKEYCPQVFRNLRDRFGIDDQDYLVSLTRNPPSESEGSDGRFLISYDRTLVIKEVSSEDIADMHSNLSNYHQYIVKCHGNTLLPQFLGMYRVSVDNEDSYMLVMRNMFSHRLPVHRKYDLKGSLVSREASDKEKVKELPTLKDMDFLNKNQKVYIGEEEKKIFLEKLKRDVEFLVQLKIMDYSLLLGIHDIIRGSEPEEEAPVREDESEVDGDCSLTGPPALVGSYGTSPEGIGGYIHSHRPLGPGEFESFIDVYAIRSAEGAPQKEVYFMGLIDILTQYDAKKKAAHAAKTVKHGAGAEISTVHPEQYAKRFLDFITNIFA

IC50 [1]: Not Active
IC50 [2]: Not Active
SMILES: CN(C)C/C=C/C(=O)Nc1cccc(NC(=O)N2CCCC(Nc3cc(-c4cnc5[nH]ccc5c4)ncn3)C2)c1 (stereo unspecified)

IC50 ([1]; read-out: IC50): 9.9 µM
IC50 ([2]; read-out: IC50): 1.34 µM
SMILES: Cc1ccc(-n2ccc3c(Nc4cccc(NC(=O)c5ccc(NC(=O)/C=C/CN(C)C)cc5)c4)ncnc32)cc1

IC50 [3]: 15.8 µM
SMILES: Cn1nnnc1Sc1ncnc2scc(-c3cccc(S(C)(=O)=O)c3)c12

IC50 [3]: 1 µM
SMILES: FC(F)(F)c1ccccc1-c1nc(NCc2cccs2)c2ccccc2n1
